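Following 48 hours of exposure in 96-well plates, responses at five concentrations were used to interpolate endpoints linearly. GI50 marks 50% less growth.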 Active and inactive are the calls of the source. No stated cut-off is given here; in the data, active = GI50 up to about 1.1 µM and inactive = higher.
How the values were obtained:
Assay in all cases: inhibition of tumour cell growth, NCI panel, 48 h
[1] = test system: KM12
[2] = test system: SNB-78
[3] = test system: RXF 393
[4] = test system: A549
[5] = test system: CCRF-CEM
[6] = test system: HCT-15
[7] = test system: UACC-257
[8] = test system: KM-20L2
[9] = test system: HOP-62
[10] = test system: MOLT-4
[11] = test system: CAKI-1
[12] = test system: K562
[13] = test system: SF-539
[14] = test system: M19-MEL
[15] = test system: SK-MEL-2
[16] = test system: TK-10
[17] = test system: DMS-114
[18] = test system: LXFL 529
[19] = test system: HOP-92
[20] = test system: NCI-H226
[21] = test system: DLD-1
[22] = test system: UO-31
[23] = test system: HCC 2998
[24] = test system: SF-268
[25] = test system: RPMI-8226
[26] = test system: HL-60
[27] = test system: SW-620
[28] = test system: SF-295
[29] = test system: U-251
[30] = test system: OVCAR-4
[31] = test system: DMS-273
[32] = test system: SR
[33] = test system: EKVX
[34] = test system: SN12C
[35] = test system: NCI-H460
[36] = test system: OVCAR-8
[37] = test system: 786-0
[38] = test system: UACC-62
[39] = test system: SK-MEL-28
[40] = test system: LOX IMVI
[41] = test system: NCI-H23
[42] = test system: SK-OV-3
[43] = test system: HT-29
[44] = test system: OVCAR-5
[45] = test system: A498
[46] = test system: SK-MEL-5
[47] = test system: IGROV-1
[48] = test system: SNB-75
[49] = test system: NCI-H522
[50] = test system: HCT-116
[51] = test system: M14
[52] = test system: Malme-3M
[53] = test system: SNB-19
[54] = test system: ACHN
[55] = test system: HOP-18
[56] = test system: COLO 205
[57] = test system: OVCAR-3
[58] = test system: XF498

Measured: GI50

N#CC(C(=O)C(=O)NCCCNC(=O)C(=O)C(C#N)c1ccccc1)c1ccccc1 (configuration not stated)
active: [11] 0.0167 µM
inactive: [1] > 100 µM | [2] > 100 µM | [3] > 100 µM | [4] > 100 µM | [5] > 100 µM | [7] > 100 µM | [8] > 100 µM | [9] > 100 µM | [10] > 100 µM | [12] > 100 µM | [13] > 100 µM | [14] > 100 µM | [15] > 100 µM | [16] > 100 µM | [17] > 100 µM | [18] > 100 µM | [19] > 100 µM | [20] > 100 µM | [21] > 100 µM | [22] > 100 µM | [23] > 100 µM | [24] > 100 µM | [25] > 100 µM | [26] > 100 µM | [27] > 100 µM | [28] > 100 µM | [29] > 100 µM | [30] > 100 µM | [31] > 100 µM | [32] > 100 µM | [33] > 100 µM | [34] > 100 µM | [35] > 100 µM | [36] > 100 µM | [37] > 100 µM | [38] > 100 µM | [39] > 100 µM | [40] > 100 µM | [41] > 100 µM | [42] > 100 µM | [43] > 100 µM | [44] > 100 µM | [45] > 100 µM | [46] > 100 µM | [47] > 100 µM | [48] 30.1 µM | [49] > 100 µM | [50] > 100 µM | [51] > 100 µM | [52] > 100 µM | [53] 5.33 µM | [54] > 100 µM | [55] > 100 µM | [56] > 100 µM | [57] > 100 µM
> 100 µM: [6]

CC(C)NC(=O)OCc1nnn2c1CCC2
inactive: [1] > 100 µM | [2] > 100 µM | [3] > 100 µM | [4] > 100 µM | [5] > 100 µM | [7] > 100 µM | [8] > 100 µM | [9] > 100 µM | [10] > 100 µM | [12] > 100 µM | [13] > 100 µM | [14] > 100 µM | [58] > 100 µM | [15] > 100 µM | [16] > 100 µM | [18] > 100 µM | [19] 74 µM | [21] > 100 µM | [22] > 100 µM | [23] > 100 µM | [26] > 100 µM | [27] > 100 µM | [28] > 100 µM | [29] > 100 µM | [30] > 100 µM | [32] > 100 µM | [33] > 100 µM | [34] > 100 µM | [35] > 100 µM | [36] > 100 µM | [38] > 100 µM | [39] > 100 µM | [40] > 100 µM | [41] > 100 µM | [42] > 100 µM | [43] > 100 µM | [44] > 100 µM | [46] > 100 µM | [47] > 100 µM | [48] > 100 µM | [49] > 100 µM | [50] > 100 µM | [51] > 100 µM | [52] > 100 µM | [54] > 100 µM | [57] > 100 µM
> 100 µM: [6]

COc1cc([C@@H]2OCC3C(c4ccc5c(c4)OCO5)OCC32)cc(OC)c1OC (some centres not stated)
inactive: [1] > 100 µM | [2] > 100 µM | [3] > 100 µM | [4] 71.3 µM | [5] > 100 µM | [8] > 100 µM | [9] > 100 µM | [10] 45.5 µM | [11] > 100 µM | [12] 54.1 µM | [13] > 100 µM | [14] > 100 µM | [58] 52.6 µM | [15] > 100 µM | [17] 35.5 µM | [18] 43.1 µM | [19] 8.97 µM | [20] 41.3 µM | [21] > 100 µM | [22] > 100 µM | [23] > 100 µM | [24] > 100 µM | [25] 98.9 µM | [26] > 100 µM | [27] > 100 µM | [28] > 100 µM | [29] > 100 µM | [30] > 100 µM | [31] 76.4 µM | [32] 91.6 µM | [33] 47.1 µM | [34] > 100 µM | [35] > 100 µM | [36] 81.7 µM | [37] > 100 µM | [39] > 100 µM | [40] > 100 µM | [41] 43.4 µM | [42] > 100 µM | [43] > 100 µM | [44] > 100 µM | [45] > 100 µM | [47] > 100 µM | [48] 4.33 µM | [49] 49.9 µM | [50] 66.7 µM | [51] > 100 µM | [52] > 100 µM | [53] 47.8 µM | [54] > 100 µM | [56] > 100 µM | [57] > 100 µM
> 100 µM: [6]

— ChEMBL document CHEMBL1201862, “PubChem BioAssay data set” (2004)
